Measurements: patent US20170081357A1, “[…] ACTIVE 17-NITROGEN SUBSTITUTED ESTRATREINTHIAZOLE DERIVATIVES AS INHIBITORS OF 17.BETA-HYDROXYSTEROID DEHYDROGENASE” (FORENDO PHARMA LTD, priority 2013, published 2017)

How the values were obtained:
[1] = Metabolic stability assay, human liver microsome and homogenate incubations; format: in vitro ADME; details: human liver homogenate or microsomes, LC/PDA/TOF-MS
Description: The in vitro metabolic stability of the compounds of the invention was determined for exemplified compounds using human liver microsome and homogenate incubations. The incubation time points used with or without appropriate cofactors were 0 min and 60 min. Samples were collected at both time points and substrates were detected using LC/PDA/TOF-MS. In vitro metabolic stability (% remaining after 60 min in human liver homogenate or microsomes) of the compounds were calculated and the results are summarized in Table 3.

[2] = target: T1, recombinant human 17β-HSD1 (Homo sapiens, UniProt P14061); assay: Inhibition of recombinant human 17β-HSD1 (conversion of 3H-estrone to estradiol, HPLC); format: biochemical; details: inhibitor 1 μM; 30 nM estrone, 1 mM NADPH, 30 min at RT; read-out: 17β-HDS1 Inhibition % at 1 μM
T1 construct: made in house; host or cells: Sd9 (Sf9) insect cells, baculovirus (Bac to Bac Expression System); microsomal fraction
T1 sequence (P14061 1-328): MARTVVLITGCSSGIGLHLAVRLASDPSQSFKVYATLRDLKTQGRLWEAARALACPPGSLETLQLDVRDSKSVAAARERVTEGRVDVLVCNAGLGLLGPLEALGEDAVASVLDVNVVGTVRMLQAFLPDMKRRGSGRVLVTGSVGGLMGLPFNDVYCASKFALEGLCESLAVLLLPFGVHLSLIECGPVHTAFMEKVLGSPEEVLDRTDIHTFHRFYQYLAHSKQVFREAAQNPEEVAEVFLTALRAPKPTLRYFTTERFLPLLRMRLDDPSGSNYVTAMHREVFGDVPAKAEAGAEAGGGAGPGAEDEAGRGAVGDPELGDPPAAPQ
Description: 17β-HSD1 production and isolation: Recombinant baculovirus was generated by the “Bac to Bac Expression System” (Invitrogen). Recombinant bacmid was transfected to Sd9 insect cells using “Cellfectin Reagent” (Invitrogen). 60 h later cells were harvested; the microsomal fraction was isolated as described by Puranen, T. J., Poutanen, M. H., Peltoketo, H. E., Vihko, P. T. and Vihko, R. K. (1994) Site-directed mutagenesis of the putative active site of human 17 β-hydroxysteroid dehydrogenase type 1. Biochem. J. 304: 289-293. Aliquots were stored frozen until determination of enzymatic activity.
Assay—Inhibition of recombinant human 17β-HSD1: Recombinant protein (1 μg/ml) was incubated in 20 mM KH2PO4 pH 7.4 with 30 nM estrone (including 800 000 cpm/ml of ^3H-estrone) and 1 mM NADPH for 30 min at RT, in the presence of the potential inhibitor at concentrations 1 μM or 0.1 μM. Inhibitor stock solutions were prepared in DMSO. Final concentration of DMSO was adjusted to 1% in all samples. The enzyme reaction was stopped by addition of 10% trichloroacetic acid (final concentration). Samples were centrifuged in a microtiter plate at 4000 rpm for 10 min. Supernatants were applied to reverse phase HPLC on a Waters Symmetry C18 column, equipped with a Waters Sentry Guard column. Isocratic HPLC runs were performed at RT at a flow rate of 1 ml/min in acetonitrile:water 48:52 as running solvent. Radioactivity was monitored in the eluate by a Packard Flow Scintillation Analyzer. Total radioactivity for estrone and estradiol were determined in each sample and percent conversion of estrone to estradiol was calculated according to the following formula:
(§1) Percent inhibition was calculated flowingly: % inhibition=100−% conversion

[3] = target: T2, recombinant human 17β-HSD2 (Homo sapiens, UniProt P37059); assay: Inhibition of recombinant human 17β-HSD2 (conversion of 3H-estradiol to estrone, HPLC); format: biochemical; details: inhibitor 1 μM; 50 nM estradiol, 1 mM NADH, 30 min at RT
T2 construct: made in house; host or cells: Sd9 (Sf9) insect cells, baculovirus (Bac to Bac Expression System); fractionated cell extract
T2 sequence (P37059 1-387): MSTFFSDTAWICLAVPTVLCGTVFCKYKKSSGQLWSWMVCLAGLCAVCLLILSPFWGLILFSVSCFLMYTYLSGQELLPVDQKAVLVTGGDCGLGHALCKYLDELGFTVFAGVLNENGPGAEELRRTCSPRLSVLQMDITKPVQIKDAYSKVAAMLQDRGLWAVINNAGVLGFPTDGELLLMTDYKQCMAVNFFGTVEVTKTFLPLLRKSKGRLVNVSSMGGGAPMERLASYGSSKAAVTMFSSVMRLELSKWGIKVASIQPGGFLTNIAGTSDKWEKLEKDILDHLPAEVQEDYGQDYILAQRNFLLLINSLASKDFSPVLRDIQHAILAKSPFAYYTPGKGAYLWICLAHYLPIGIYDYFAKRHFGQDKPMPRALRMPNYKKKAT
Description: 17β-HSD2 production and isolation: Similarly to 17β-HSD1 the Recombinant baculovirus was generated by the “Bac to Bac Expression System” (Invitrogen). Recombinant bacmid was transfected to Sd9 insect cells using “Cellfectin Reagent” (Invitrogen). 60 h later cells were harvested and supernatant were fractionated by the following protocol: • cells were dissolved into 40 ml of A-buffer (40 mM TRIS, pH8.0, 20% glycerol, 20 μM NAD, 0.4 mM PMSF, 150 mM NaCl, 0.5% dodecyl-β-maltoside+protease inhibitor cocktail) • cells were sonicated • lysate was incubated on ice for 15 min • lysate was centrifuged 5000 rpm 15 min, +4° C. • centrifugation of the supernatant 180 000 g 30 min, +4° C. • pellet was dissolved into 8 ml of A-buffer • not resuspended material was removed by centrifugation 5000 rpm 15 min, +4° C. • the clear supernatant was divided into 100 μl aliquots and were stored frozen until determination of enzymatic activity.
The amount of 17β-HSD2 was analysed by immunoblotting and total protein concentration of each extract batch was determined.
Assay—Inhibition of recombinant human 17β-HSD2: Recombinant protein (4 μg/ml) was incubated in 20 mM KH2PO4 pH 8.5 with 50 nM estradiol (including 800 000 cpm/ml of ^3H-estradiol) and 1 mM NADH for 30 min at RT, in the presence of the potential inhibitor at concentrations 1 μM or 0.1 μM. Inhibitor stock solutions were prepared in DMSO. Final concentration of DMSO was adjusted to 1% in all samples. The enzyme reaction was stopped by addition of 10% trichloroacetic acid (final concentration). Samples were centrifuged in a microtiter plate at 4000 rpm for 10 min. Supernatants were applied to reverse phase HPLC on a Waters Symmetry C18 column, equipped with a Waters Sentry Guard column. Isocratic HPLC runs were performed at RT at a flow rate of 1 ml/min in acetonitrile:water 48:52 as running solvent. Radioactivity was monitored in the eluate by a Packard Flow Scintillation Analyzer. Total radioactivity for estrone and estradiol were determined in each sample and percent conversion of estradiol to estrone was calculated according to the following formula:
as §1

Row | Structure (SMILES) | In vitro metabolic stability, % remaining after 60 min [1] | inhibition at 1 µM [2] | inhibition at 1 µM [3]
1 | Cc1cnc(NC(=O)CC[C@@H]2C/C(=N\O)[C@@]3(C)CCC4c5cc(C(C)(C)C)c(O)cc5CCC4C23)s1 (stereo partly drawn) [Compound 58, 3-{(13S,15R)-2-tert-Butyl-3-hydroxy-17-[(E)-hydroxyimino]-13-methyl-7,8,9,11,12,13,14,15,16,17-decahydro-6H-cyclopenta[a]phenanthren-15-yl}-N-(5-methylthiazol-2-yl)propanamide] | 100% |  | 
2 | Cc1cnc(NC(=O)CC[C@@H]2C/C(=N\O)[C@@]3(C)CCC4c5cc([N+](=O)[O-])c(O)cc5CCC4C23)s1 (stereo partly drawn) [Compound 60, 3-{(13S,15R)-3-Hydroxy-2-nitro-17-[(E)-hydroxyimino]-13-methyl-7,8,9,11,12,13,14,15,16,17-decahydro-6H-cyclopenta[a]phenanthren-15-yl}-N-(5-methylthiazol-2-yl)propanamide] | 84% |  | 
3 | Cc1cnc(NC(=O)CC[C@@H]2C/C(=N\O)[C@@]3(C)CCC4c5ccc(O)c(Br)c5CCC4C23)s1 (stereo partly drawn) [Compound 63, 3-{(13S,15R)-4-Bromo-3-hydroxy-17-[(E)-hydroxyimino]-13-methyl-7,8,9,11,12,13,14,15,16,17-decahydro-6H-cyclopenta[a]phenanthren-15-yl}-N-(5-methylthiazol-2-yl)propanamide] | 64% |  | 
4 | Cc1cnc(NC(=O)CC[C@@H]2C/C(=N\OCC(=O)O)[C@@]3(C)CCC4c5ccc(O)cc5CCC4C23)s1 (stereo partly drawn) [Compound 109, [(13S,15R)-3-Hydroxy-13-methyl-15-[2-(5-methylthiazol-2-ylcarbamoyl)-ethyl]-6,7,8,9,11,12,13,14,15,16-decahydro-cyclopenta[a]phenanthren-(17E)-ylideneaminooxy]-acetic acid] |  | 56% | 0%
5 | Cc1cnc(NC(=O)CC[C@@H]2C/C(=N\OCC(=O)O)[C@@]3(C)CCC4c5cc(C(C)(C)C)c(O)cc5CCC4C23)s1 (stereo partly drawn) [Compound 110, [(13S,15R)-2-tert-Butyl-3-hydroxy-13-methyl-15-[2-(5-methylthiazol-2-ylcarbamoyl)-ethyl]-6,7,8,9,11,12,13,14,15,16-decahydro-cyclopenta[a]phenanthren-(17E)-ylideneaminooxy]-acetic acid] |  | 70% | 7%
6 | Cc1cnc(NC(=O)CC[C@@H]2C/C(=N\OCC(=O)O)[C@@]3(C)CCC4c5cc([N+](=O)[O-])c(O)cc5CCC4C23)s1 (stereo partly drawn) [Compound 111, [(13S,15R)-3-Hydroxy-13-methyl-2-nitro-15-[2-(5-methylthiazol-2-ylcarbamoyl)-ethyl]-6,7,8,9,11,12,13,14,15,16-decahydro-cyclopenta[a]phenanthren-(17E)-ylideneaminooxy]-acetic acid] |  | 55% | 0%
7 | Cc1cnc(NC(=O)CC[C@@H]2C/C(=N\NC(N)=O)[C@@]3(C)CCC4c5ccc(O)cc5CCC4C23)s1 (stereo partly drawn) [Compound 112, 3-{(13S,15R)-3-Hydroxy-17-[(E)-N-urea-imino]-13-methyl-7,8,9,11,12,13,14,15,16,17-decahydro-6H-cyclopenta[a]phenanthren-15-yl}-N-(5-methylthiazol-2-yl)propanamide] |  | 83% | 5%
8 | Cc1cnc(NC(=O)CC[C@@H]2C/C(=N\NC(N)=O)[C@@]3(C)CCC4c5cc(Br)c(O)c(Br)c5CCC4C23)s1 (stereo partly drawn) [Compound 113, 3-{(13S,15R)-2,4-Dibromo-3-hydroxy-17-[(E)-N-urea-imino]-13-methyl-7,8,9,11,12,13,14,15,16,17-decahydro-6H-cyclopenta[a]phenanthren-15-yl}-N-(5-methylthiazol-2-yl)propanamide] |  | 58% | 1%
9 | Cc1cnc(NC(=O)CC[C@@H]2C/C(=N\O)[C@@]3(C)CCC4c5ccc6ocnc6c5CCC4C23)s1 (stereo partly drawn) [Compound 114, 3-{(7aS,10R)-8-[(E)-Hydroxyimino]-7a-methyl-6,7,7a,8,9,10,10a,10b,11,12-decahydro-5bH-3-oxa-1-aza-dicyclopenta[a,i]phenathren-10-yl}-N-(5-methylthiazol-2-yl)propanamide] |  | 70% | 5%
10 | Cc1cnc(NC(=O)CC[C@@H]2c3conc3[C@@]3(C)CCC4c5cc(Br)c(O)c(Br)c5CCC4C23)s1 (some centres unmarked) [Compound 119] |  | 79% | 28%
11 | Cc1cnc(NC(=O)CC[C@@H]2C/C(=N\CC(C)C)[C@@]3(C)CCC4c5ccc(O)cc5CCC4C23)s1 (stereo partly drawn) [Compound 121, 3-{(13S,15R)-3-Hydroxy-17-[(E)-isobutylimino]-13-methyl-7,8,9,11,12,13,14,15,16,17-decahydro-6H-cyclopenta[a]phenanthren-15-yl}-N-(5-methylthiazol-2-yl)propionamide] |  | 94% | 7%
12 | COCC/N=C1\C[C@@H](CCC(=O)Nc2ncc(C)s2)C2C3CCc4cc(O)ccc4C3CC[C@]12C (stereo partly drawn) [Compound 122, 3-{(13S,15R)-3-Hydroxy-17-[(E)-2-methoxy-ethylimino]-13-methyl-7,8,9,11,12,13,14,15,16,17-decahydro-6H-cyclopenta[a]phenanthren-15-yl}-N-(5-methylthiazol-2-yl)propionamide] |  | 94% | 5%
13 | COCC/N=C1\C[C@@H](CCC(=O)Nc2ncc(C)s2)C2C3CCc4cc(O)c(C(C)(C)C)cc4C3CC[C@]12C (stereo partly drawn) [Compound 123, 3-{(13S,15R)-2-tert-Butyl-3-hydroxy-17-[(E)-2-methoxy-ethylimino]-13-methyl-7,8,9,11,12,13,14,15,16,17-decahydro-6H-cyclopenta[a]phenanthren-15-yl}-N-(5-methylthiazol-2-yl)propionamide] |  | 94% | 30%
